Laboratory results published in PubChem BioAssay (NCI).
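Results reflect a 48-hour exposure of cells in 96-well plates to compound at five concentrations. At the GI50, growth is halved. TGI denotes the concentration required for complete inhibition of growth.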

Assays:
Assay in all cases: growth of human tumour cells (NCI), 48 h
[1] = tested on: SN12C renal
[2] = tested on: OVCAR-3 ovarian
[3] = tested on: DU-145 prostate
[4] = tested on: HL-60(TB) leukemia
[5] = tested on: HCT-15 colon
[6] = tested on: TK-10 renal
[7] = tested on: NCI-H226 lung
[8] = tested on: SK-OV-3 ovarian
[9] = tested on: SNB-75 CNS
[10] = tested on: MCF7 breast

O=Cc1ccc(-c2ccc(-c3nc4ccccc4[nH]3)cc2)s1
GI50 [1]: 31.6 µM | TGI [1]: 92.2 µM | GI50 [2]: 20.9 µM | TGI [2]: 54.1 µM | GI50 [3]: 25.8 µM | TGI [3]: > 100 µM | GI50 [4]: 47.1 µM | TGI [4]: > 100 µM | GI50 [5]: 19.1 µM | TGI [5]: 53.3 µM | GI50 [6]: 23.5 µM | TGI [6]: 69.1 µM | GI50 [7]: 27.3 µM | TGI [7]: 82.3 µM

O=C(O)C1=C(C(=O)Nc2ccccc2)C2C=CC1C2 (stereo not given)
TGI [1]: > 100 µM | TGI [2]: > 100 µM | TGI [8]: > 100 µM | TGI [4]: > 100 µM | TGI [5]: > 100 µM | TGI [9]: > 100 µM | TGI [6]: > 100 µM

C[C@H]1CC[C@H]([C@@H](C)[C@H]2[C@@H](O)C[C@H]3[C@@H]4CC[C@H]5C[C@@H](O)CC[C@]5(C)[C@H]4CC[C@]23C)NC1
TGI [1]: 35.5 µM | TGI [2]: 39.8 µM | TGI [8]: 31.7 µM | TGI [3]: 32 µM | TGI [4]: 20.2 µM | TGI [5]: 36.6 µM | TGI [6]: 38.1 µM | TGI [10]: 47.2 µM | TGI [7]: 39.5 µM

CN(C)c1ncnc2c1Cc1ccccc1C(=O)N2C
TGI [1]: > 100 µM | TGI [2]: > 100 µM | TGI [8]: > 100 µM | TGI [4]: > 100 µM | TGI [9]: > 100 µM | TGI [6]: > 100 µM | TGI [7]: > 100 µM

CCNCCC1(CC)C(=O)NC(=O)NC1=O
TGI [1]: > 100 µM | TGI [2]: > 100 µM | TGI [8]: > 100 µM | TGI [3]: > 100 µM | TGI [5]: > 100 µM | TGI [9]: > 100 µM | TGI [6]: > 100 µM | TGI [10]: > 100 µM | TGI [7]: > 100 µM

O=C(Cc1nc2ccccc2s1)Nc1ccc(Cl)cc1
TGI [1]: > 100 µM | TGI [2]: > 100 µM | TGI [8]: > 100 µM | TGI [4]: > 100 µM | TGI [9]: > 100 µM | TGI [6]: > 100 µM | TGI [7]: > 100 µM

CCN(CC)CC.CCOc1ccc(NC(=O)N=C=[N-])cc1.[CH-]1CCCCC1.[CH-]1CCCCC1.[CH-]1CCCCC1.[Cl-].[Sn+4]
GI50 [1]: 0.0233 µM | TGI [1]: 0.0634 µM | GI50 [2]: 0.0171 µM | TGI [2]: 0.038 µM | GI50 [8]: 0.0466 µM | TGI [8]: 0.118 µM | GI50 [3]: 0.0617 µM | TGI [3]: 0.19 µM | GI50 [4]: 0.0184 µM | TGI [4]: 0.0584 µM | GI50 [5]: 0.0198 µM | TGI [5]: 0.0555 µM | GI50 [9]: 0.0244 µM | TGI [9]: 0.108 µM | GI50 [6]: 0.0458 µM | TGI [6]: 0.116 µM | GI50 [7]: 0.0737 µM | TGI [7]: 0.183 µM

COC(=O)C(Cc1cnc[nH]1)NC(=O)CNC(=O)CCCn1c(=O)c2c3ccccc3n(C)c2n2nnc(-c3ccccc3)c12 (stereo not given)
GI50 [1]: > 100 µM | TGI [1]: > 100 µM | GI50 [2]: > 100 µM | TGI [2]: > 100 µM | GI50 [8]: > 100 µM | TGI [8]: > 100 µM | GI50 [3]: > 100 µM | TGI [3]: > 100 µM | GI50 [5]: > 100 µM | TGI [5]: > 100 µM | GI50 [9]: > 100 µM | TGI [9]: > 100 µM | GI50 [6]: > 100 µM | TGI [6]: > 100 µM | GI50 [10]: > 100 µM | TGI [10]: > 100 µM | GI50 [7]: > 100 µM | TGI [7]: > 100 µM

COc1cccc(NC(=O)C(C)(C)C)c1C=O
TGI [1]: > 100 µM | TGI [2]: > 100 µM | TGI [8]: > 100 µM | TGI [4]: > 100 µM | TGI [5]: > 100 µM | TGI [9]: > 100 µM | TGI [6]: > 100 µM | TGI [7]: > 100 µM

O=Nc1ccc(O)c2ccccc12
GI50 [1]: 1.38 µM | TGI [1]: 3.22 µM | GI50 [2]: 0.25 µM | TGI [2]: 0.643 µM | GI50 [8]: 4.93 µM | TGI [8]: 16.3 µM | GI50 [3]: 1.77 µM | TGI [3]: 3.22 µM | GI50 [5]: 2.14 µM | TGI [5]: 4.98 µM | GI50 [9]: 1.44 µM | TGI [9]: 3.02 µM | GI50 [6]: 2.24 µM | TGI [6]: 4.66 µM | GI50 [10]: 1.81 µM | TGI [10]: 4.31 µM | GI50 [7]: 2.02 µM | TGI [7]: 4.3 µM

COc1cc(Br)c(CC2(C#N)c3ccccc3C3C(N2C(=O)c2ccccc2)C3(Cl)Cl)cc1OC (stereo not given)
TGI [1]: > 65.5 µM | TGI [2]: > 65.5 µM | TGI [8]: > 65.5 µM | TGI [4]: 30.2 µM | TGI [5]: > 65.5 µM | TGI [9]: > 65.5 µM | TGI [6]: > 65.5 µM | TGI [7]: > 65.5 µM

CCSC(SCC)c1cc2c(cc1Br)OCO2
TGI [1]: > 100 µM | TGI [2]: 57.3 µM | TGI [8]: 88.6 µM | TGI [4]: 38 µM | TGI [5]: > 100 µM | TGI [9]: 62.9 µM | TGI [6]: > 100 µM | TGI [7]: 81.1 µM

c1ccc(N=c2snc3scc(-c4ccccc4)n23)cc1
TGI [1]: > 100 µM | TGI [2]: 62.2 µM | TGI [8]: > 100 µM | TGI [4]: > 100 µM | TGI [5]: > 100 µM | TGI [9]: > 100 µM | TGI [6]: > 100 µM | TGI [7]: > 100 µM

CC1=C(C(=O)Nc2ccccc2)C(c2ccc([N+](=O)[O-])cc2)C(C(=O)Nc2ccccc2)=C(C)N1
TGI [1]: 79.3 µM | TGI [2]: > 100 µM | TGI [4]: 34.1 µM | TGI [5]: 50.9 µM | TGI [9]: 82.1 µM | TGI [6]: > 100 µM | TGI [7]: > 100 µM

O=C(CSc1nc2ccccc2nc1-c1ccccc1)Nc1ccc(Cl)cc1
GI50 [1]: 22.6 µM | TGI [1]: 99.2 µM | GI50 [2]: 13.1 µM | TGI [2]: 40.3 µM | GI50 [8]: 78.9 µM | TGI [8]: > 100 µM | GI50 [3]: 55.4 µM | TGI [3]: > 100 µM | GI50 [5]: 76.7 µM | TGI [5]: > 100 µM | GI50 [9]: 18.7 µM | TGI [9]: 59.4 µM | GI50 [6]: 35.9 µM | TGI [6]: > 100 µM | GI50 [10]: 44.3 µM | TGI [10]: > 100 µM | GI50 [7]: 16.7 µM | TGI [7]: 51.1 µM

O=C(NCCO)c1cc2c(cn1)[nH]c1ccccc12
TGI [1]: > 100 µM | TGI [2]: > 100 µM | TGI [8]: > 100 µM | TGI [4]: > 100 µM | TGI [5]: > 100 µM | TGI [9]: > 100 µM | TGI [6]: > 100 µM | TGI [7]: > 100 µM

CCN(CC)CCCC(C)Nc1cc(-c2ccc(C(F)(F)F)cc2)c(C#N)c2nc3ccccc3n12 (stereo not given)
GI50 [2]: 1.84 µM | TGI [2]: 3.68 µM | GI50 [8]: 2.22 µM | TGI [8]: 4.75 µM | GI50 [3]: 3.55 µM | TGI [3]: 11.4 µM | GI50 [4]: 2.1 µM | TGI [4]: 4.98 µM | GI50 [5]: 1.88 µM | TGI [5]: 4.03 µM | GI50 [6]: 2.49 µM | TGI [6]: 5.29 µM | GI50 [10]: 2.1 µM | TGI [10]: 4.88 µM

CCC(=O)C1(c2ccccc2)CCN(C)CC1
TGI [8]: > 100 µM | TGI [3]: > 100 µM | TGI [4]: > 100 µM | TGI [5]: > 100 µM | TGI [9]: > 100 µM | TGI [6]: > 100 µM | TGI [10]: > 100 µM

Cc1ccc(-n2c3nc(=O)n(C)c(=O)c-3nc3ccccc32)cc1
TGI [1]: 34 µM | TGI [2]: 17.6 µM | TGI [8]: > 100 µM | TGI [4]: 35.8 µM | TGI [5]: 23.7 µM | TGI [9]: 39.7 µM | TGI [6]: > 100 µM | TGI [7]: 68.7 µM

O=C1OC(c2ccccc2)=N/C1=C\c1ccc2ccccc2c1
TGI [1]: > 100 µM | TGI [2]: > 100 µM | TGI [8]: > 100 µM | TGI [5]: > 100 µM | TGI [9]: > 100 µM | TGI [6]: > 100 µM

Nc1nc(Cl)cc(NCCCCCNc2cc(Cl)nc(N)n2)n1
TGI [1]: > 100 µM | TGI [2]: > 100 µM | TGI [8]: > 100 µM | TGI [4]: > 100 µM | TGI [5]: > 100 µM | TGI [9]: > 100 µM | TGI [6]: > 100 µM | TGI [7]: > 100 µM
